Here are results for ten compounds from ChEMBL document CHEMBL1151556, “Design and synthesis of new hypocholesterolemic organosilanes with antioxidant properties” (Bioorg Med Chem Lett, 1996).

Test [1] is filed under the species Homo sapiens. The test can be described thus: Compound was evaluated for the inhibition of human LDL oxidation mediated by copper(II). The class given is functional.
The subject of test [2] is HepG2. Description: In vitro inhibition of cholesterol synthesis in HepG2 cells. It is filed as functional, cell-based. The settings on record: Homo sapiens.
Test [3] relates to Rattus norvegicus. The test can be described thus: Compound was evaluated in vivo for inhibition of cholesterol synthesis in rats upon oral administration. It is filed as functional.
In test [4] the test system is HUVEC. The test can be described thus: (§1) Compound was evaluated for the inhibition of HUVEC-induced LDL oxidation. The settings on record: Homo sapiens. The class given is functional, cell-based.
Test [5] has as its target Squalene monooxygenase (Sus scrofa). The test can be described thus: Compound was evaluated for the inhibition of pig liver microsomal squalene epoxidase. (Liver microsomes are vesicles of endoplasmic reticulum, rich in cytochrome P450 enzymes.)
The species named for test [6] is Homo sapiens. The description is as §1. The class given is functional, organism-based.

A word on the IC50: it is the concentration that gives 50% inhibition. Lower therefore signals higher potency. What is called ED50 is the dose that gives a 50% effect, or the effect in half of the subjects. For the compound `CCN(C/C=C/C#CC(C)(C)C)Cc1cccc(OC[Si](C)(C)c2ccccc2C)c1`, the IC50 in test [1] is more than 50 µM; in test [2], 0.12 µM; in test [4] it was 50 µM; in test [5], 0.03 µM. This compound also showed a median effective dose (ED50) in test [3] of 3.2 mg/kg.
In test [1] (Homo sapiens), `CC(C)(CNc1ccccc1)c1ccccc1` showed an IC50 of 100 µM.
`CCN(C[Si](C)(C)c1ccccc1)c1ccccc1` displayed an IC50 in test [1] (Homo sapiens) of 15 µM.
The same measure, in the same setting: as for `COc1ccc(NC[Si](C)(C)c2ccccc2)cc1`, the figure is 3 µM.
The same measure, in the same setting: as for `CCN(C[Si](C)(C)c1ccccc1)c1ccc(C(F)(F)F)cc1`, the figure is 100 µM.
In test [1] (Homo sapiens), `CCN(C[Si](C)(C)c1ccc(C(F)(F)F)cc1)c1ccccc1` gave an IC50 of 20 µM.
`C[Si](C)(CNc1ccccc1)c1ccccc1` had an IC50 in test [1] (Homo sapiens) of 7.8 µM.
`CCN(C/C=C/C#CC(C)(C)C)Cc1cccc(NC[Si](C)(C)c2ccccc2C)c1`: the IC50 in test [1] stood at 20 µM; in test [2], 0.2 µM; in test [4] it was 7 µM. In test [3], the ED50 is 10 mg/kg.
Turning to `CC(C)(Sc1cc(C(C)(C)C)c(O)c(C(C)(C)C)c1)Sc1cc(C(C)(C)C)c(O)c(C(C)(C)C)c1` [PROBUCOL], in test [1] (Homo sapiens), the IC50 is 5.3 µM.
Consider VITAMIN E, for which the IC50 in test [6] was 13.6 µM; in test [1], 10 µM.
